Laboratory results: the supplement of paper PMC10307832

How the values were obtained:
Experiment in all cases: relative viability (nuclei count vs DMSO), 5 days (fraction); higher = more cells survive
Pictilisib + Foretinib = compound: CS(=O)(=O)N1CCN(Cc2cc3nc(-c4cccc5[nH]ncc45)nc(N4CCOCC4)c3s2)CC1 [Pictilisib] + COc1cc2c(Oc3ccc(NC(=O)C4(C(=O)Nc5ccc(F)cc5)CC4)cc3F)ccnc2cc1OCCCN1CCOCC1 [Foretinib] (partner 0.25 µM)
Method in brief: (§1)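 Dosing by pin tool came one day after lung cancer cell lines were seeded in 1536-well plates, using either one drug or a fixed anchor-drug dose plus five library-drug doses (not always all listed) in √10 steps. After 5 days, nuclei were counted on 4× images. Relative viability is treated-well nuclei count divided by vehicle-well nuclei count, and values are medians of duplicate plates.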

Pictilisib + AZD7762 = compound: CS(=O)(=O)N1CCN(Cc2cc3nc(-c4cccc5[nH]ncc45)nc(N4CCOCC4)c3s2)CC1 [Pictilisib] + NC(=O)Nc1cc(-c2cccc(F)c2)sc1C(=O)N[C@H]1CCCNC1 [AZD7762] (partner 0.2 µM)
Method in brief: as §1

MK-2206 + Pictilisib = compound: NC1(c2ccc(-c3nc4ccn5c(=O)[nH]nc5c4cc3-c3ccccc3)cc2)CCC1 [MK-2206] + CS(=O)(=O)N1CCN(Cc2cc3nc(-c4cccc5[nH]ncc45)nc(N4CCOCC4)c3s2)CC1 [Pictilisib] (partner 1 µM)
Method in brief: as §1

MK-2206 + Phenformin = compound: NC1(c2ccc(-c3nc4ccn5c(=O)[nH]nc5c4cc3-c3ccccc3)cc2)CCC1 [MK-2206] + N=C(N)NC(=N)NCCc1ccccc1 [Phenformin] (partner 250 µM)
Method in brief: as §1

Cell Line	relative viability (Pictilisib + Foretinib; first compound 0.02 µM)	relative viability (Pictilisib + Foretinib; first compound 0.06325 µM)	relative viability (Pictilisib + Foretinib; first compound 0.6325 µM)	relative viability (Pictilisib + Foretinib; first compound 2 µM)	relative viability (Pictilisib + AZD7762; first compound 0.02 µM)	relative viability (Pictilisib + AZD7762; first compound 0.06325 µM)	relative viability (Pictilisib + AZD7762; first compound 0.6325 µM)	relative viability (Pictilisib + AZD7762; first compound 2 µM)	relative viability (MK-2206 + Pictilisib; first compound 0.01 µM)	relative viability (MK-2206 + Pictilisib; first compound 0.03162 µM)	relative viability (MK-2206 + Pictilisib; first compound 0.3162 µM)	relative viability (MK-2206 + Pictilisib; first compound 1 µM)	relative viability (MK-2206 + Phenformin; first compound 0.01 µM)	relative viability (MK-2206 + Phenformin; first compound 0.03162 µM)	relative viability (MK-2206 + Phenformin; first compound 0.3162 µM)	relative viability (MK-2206 + Phenformin; first compound 1 µM)
201T	1.06	1.07	0.846	0.617	0.637	0.571	0.41	0.448	0.669	0.696	0.651	0.648	0.446	0.417	0.42	0.52
A549	1.04	0.937	0.771	0.431	–	–	–	–	0.496	0.494	0.394	0.304	0.173	0.152	0.203	0.124
A-427	1.15	0.929	1	0.604	0.796	0.738	0.556	0.403	0.766	0.676	0.732	0.717	0.325	0.297	0.219	0.25
ABC-1	1.37	0.903	0.863	0.803	1	0.741	0.657	0.609	0.629	0.728	0.721	0.701	0.265	0.235	0.196	0.232
BEN	0.83	0.599	0.587	0.538	0.809	0.808	0.745	0.447	0.573	0.621	0.63	0.571	0.258	0.267	0.272	0.295
CAL-12T	1.09	1.14	1.08	0.918	0.609	0.845	0.724	0.626	0.58	0.455	0.465	0.229	0.492	0.561	0.626	0.564
COR-L23	1.01	1.07	0.979	0.934	–	–	–	–	0.816	0.834	0.741	0.686	0.417	0.452	0.422	0.459
COR-L 105	1.08	1.09	0.996	0.49	–	–	–	–	0.381	0.414	0.408	0.425	0.51	0.472	0.392	0.489
Calu-6	0.979	0.959	0.834	0.703	–	–	–	–	0.93	0.895	0.86	0.873	–	–	–	–
ChaGo-K-1	0.896	0.924	0.838	0.721	0.858	0.913	0.864	0.784	0.914	0.981	0.692	0.401	0.524	0.488	0.46	0.497
EBC-1	0.122	0.0955	0.112	0.115	–	–	–	–	0.459	0.314	0.176	0.164	–	–	–	–
EKVX	0.855	0.88	0.721	0.438	0.732	0.703	0.41	0.315	0.415	0.447	0.424	0.445	0.24	0.245	0.204	0.256
EMC-BAC-2	0.946	0.922	0.813	0.664	1.16	1.12	0.798	0.631	0.54	0.574	0.515	0.441	0.526	0.546	0.475	0.431
EPLC-272H	0.711	0.687	0.376	0.173	0.25	0.279	0.173	0.14	0.292	0.333	–	0.336	0.323	0.285	0.29	0.336
H3255	0.813	0.884	0.571	0.494	0.814	0.8	0.832	0.578	0.477	0.45	0.399	0.384	0.357	0.322	0.368	0.343
HARA	0.828	0.906	0.851	0.581	0.246	0.357	0.302	0.245	0.388	0.395	0.399	0.357	0.432	0.577	0.386	0.415
HCC-15	1.07	0.966	0.852	0.659	1.23	1.25	0.989	0.78	0.727	0.785	0.643	0.626	0.469	0.519	0.442	0.288
HCC-44	–	–	–	–	0.978	0.994	1.05	1.22	0.804	0.619	0.496	0.392	0.184	0.184	0.152	0.107
HCC-78	0.488	0.5	0.392	0.308	0.569	0.559	0.395	0.233	0.25	0.202	0.204	0.162	0.7	–	0.753	0.524
HCC-366	0.978	0.936	0.68	0.329	0.316	0.259	0.204	0.0615	0.19	0.124	0.126	0.12	0.614	0.686	0.564	0.39
HCC-827	0.996	1.04	0.931	0.392	0.17	0.153	0.154	0.122	0.982	1.11	0.899	1.01	0.45	0.434	0.402	0.326

Cell Line	relative viability (Pictilisib + Foretinib; first compound 0.02 µM)	relative viability (Pictilisib + Foretinib; first compound 0.06325 µM)	relative viability (Pictilisib + Foretinib; first compound 0.6325 µM)	relative viability (Pictilisib + Foretinib; first compound 2 µM)	relative viability (Pictilisib + AZD7762; first compound 0.02 µM)	relative viability (Pictilisib + AZD7762; first compound 0.06325 µM)	relative viability (Pictilisib + AZD7762; first compound 0.6325 µM)	relative viability (Pictilisib + AZD7762; first compound 2 µM)	relative viability (MK-2206 + Pictilisib; first compound 0.01 µM)	relative viability (MK-2206 + Pictilisib; first compound 0.03162 µM)	relative viability (MK-2206 + Pictilisib; first compound 0.3162 µM)	relative viability (MK-2206 + Pictilisib; first compound 1 µM)	relative viability (MK-2206 + Phenformin; first compound 0.01 µM)	relative viability (MK-2206 + Phenformin; first compound 0.03162 µM)	relative viability (MK-2206 + Phenformin; first compound 0.3162 µM)	relative viability (MK-2206 + Phenformin; first compound 1 µM)
HOP-62	1.05	1.16	1.05	1.03	0.759	0.668	0.469	0.459	0.563	1.11	0.728	0.48	0.62	0.725	0.701	0.699
IA-LM	1.2	1.14	0.894	0.518	–	–	–	–	0.299	0.256	0.26	0.141	–	–	–	–
NCI-H520	0.695	0.694	0.4	0.244	–	–	–	–	0.275	0.228	0.276	0.223	0.551	0.523	0.212	0.254
NCI-H522	–	–	–	–	0.967	0.865	0.673	0.571	–	–	–	–	0.605	0.681	0.627	0.613
NCI-H661	1.01	1.06	1.05	0.645	–	–	–	–	0.431	0.422	0.511	0.312	0.252	0.289	0.257	0.255
NCI-H1299	1.06	1.19	1.22	1.06	–	–	–	–	0.832	0.728	0.744	0.769	–	–	–	–
NCI-H1563	0.839	0.935	0.674	0.532	–	–	–	–	0.625	0.665	0.633	0.626	0.625	0.601	0.606	0.616
NCI-H1623	0.773	0.792	0.639	0.348	–	–	–	–	–	–	–	–	0.555	0.592	0.574	0.605
NCI-H1648	–	–	–	–	0.777	0.735	0.56	0.316	–	–	–	–	–	–	–	–
NCI-H1650	1.25	1.39	1.03	0.441	–	–	–	–	0.549	0.566	0.476	0.56	0.509	0.465	0.388	0.384
NCI-H1703	0.34	0.372	0.321	0.27	0.148	0.175	0.104	0.119	0.239	0.232	0.236	0.254	–	–	–	–
NCI-H1792	–	–	–	–	0.631	0.575	0.339	0.109	0.27	0.271	0.251	0.283	0.329	0.351	0.161	0.184
NCI-H2009	1.28	1.17	1.13	0.812	–	–	–	–	0.717	1.02	0.831	0.865	0.474	0.464	0.436	0.4
NCI-H2023	0.838	0.804	0.578	0.183	–	–	–	–	0.231	0.197	0.206	0.191	0.398	0.416	0.343	0.271
NCI-H2228	0.853	0.917	0.496	0.291	–	–	–	–	0.356	0.455	0.198	0.297	0.332	0.326	0.214	0.219
NCI-H2342	0.991	1.02	0.805	0.539	0.444	0.515	0.34	0.414	–	–	–	–	0.657	0.594	0.542	0.417
SK-LU-1	0.878	0.892	0.652	0.422	–	–	–	–	0.584	0.478	0.535	0.474	0.536	0.602	0.476	0.503
SK-MES-1	1.02	0.86	0.494	0.271	–	–	–	–	0.37	0.34	0.354	0.352	0.65	0.72	0.609	0.57
SW 900	0.93	0.815	0.774	0.533	0.747	0.623	0.431	0.352	–	–	–	–	0.656	0.71	0.451	0.538
SW 1573	0.865	0.805	0.706	0.501	–	–	–	–	0.453	0.548	0.424	0.457	0.419	0.457	0.27	0.237
